Measurements: US5036077A, “1-(benzylpiperidino)propan-2-ol derivatives, their preparation, their use as antimicrobial agents and the products in which they are present” (Sanofi, priority 1987, dated 1991)
Values after ≈ are worked out from the molar mass of the structure shown. Where two headings read alike, the source gives them in different places.

Tests used:
Assay type in all cases: cell-based
[1] = system: Staphylococcus aureus CNCM 53154; experiment: Minimum bactericidal concentration, 30 min contact, strain 1; conditions: CNCM53154, 0.5 h, read-out: MBC, strain 1
Method: (§1) A bacterial inoculum is brought into contact with different dilutions of the test product for a limited time of 30 minutes. When the contact time has ended, an aliquot of the bacterial suspension/product mixture is deposited on the surface of a gelose culture medium containing an agent for neutralizing the antibacterial activity of the product. The bactericidal concentration chosen is the minimum concentration of the product which is necessary to prevent bacterial growth. This concentration is expressed in μg/ml.
1 - Staphylococcus aureus CNCM 53154;
(§2) The strains are maintained on Tryptic Soy Agar (TSA) marketed by Difco.
(§3) After 24 hours of culture at 37° C., the microbial growth is harvested with the aid of glass beads and 10 ml of diluent containing 1 g of tryptone and 8.5 g of sodium chloride in 1000 ml of distilled water. The suspension formed is shaken and the percentage transmission of light at 620 nm is measured on a spectrophotometer:
(§4) The bacterial inoculum corresponds to a 1/20 dilution of this bacterial suspension.
(§5) Plates containing cups receive different dilutions of the test product. These dilutions of the test product are brought into contact with the different bacterial suspensions using a multiple-site inoculator. After a contact time of 30 minutes, aliquots are transferred by means of this inoculator to the surface of a gelose medium (TSA) placed in petri dishes and containing an agent for neutralizing the activity, namely 20 g of lubrol W, 2.5 g of Tween 80, 2.5 g of sodium thiosulfate and 1% of egg yolk in 1000 ml of TSA (Difco). A reference for the efficacy of the neutralizing agent is prepared for each test product by depositing an aliquot of the dilution of the test product on the surface of the culture medium. After drying, the corresponding inoculum is deposited in the same place. A reference inoculum is prepared on a gelose medium with and without neutralizing agent. The results are read off after 48 hours of incubation at 37° C.
(§6) They indicate the minimum bactericidal concentrations (MBC) for strains 1, 2, 3 and 4 and the minimum fungicidal concentrations (MFC) for strain 5.

[2] = system: Streptococcus faecalis CNCM 5855; experiment: Minimum bactericidal concentration, 30 min contact, strain 2; conditions: Enterococcus faecalis, CNCM5855, 0.5 h, read-out: MBC, strain 2
Method: as §1
2 - Streptococcus faecalis CNCM 5855;
as §2, §3, §4, §5, §6

[3] = system: Pseudomonas aeruginosa CNCM A22; experiment: Minimum bactericidal concentration, 30 min contact, strain 3; conditions: CNCMA22, 0.5 h, read-out: MBC, strain 3
Method: as §1
3 - Pseudomonas aeruginosa CNCM A22;
as §2, §3, §4, §5, §6

[4] = system: Escherichia coli CNCM 54127; experiment: Minimum bactericidal concentration, 30 min contact, strain 4; conditions: CNCM54127, 0.5 h, read-out: MBC, strain 4
Method: as §1
4 - Escherichia coli CNCM 54127.
as §2, §3, §4, §5, §6

[5] = system: Candida albicans CNCM 1180; experiment: Minimum fungicidal concentration, strain 5; conditions: CNCM1180, 0.5 h, read-out: MFC, strain 5
Method: as §1, §5
(§7) The antifungal activity of the products according to the invention was also determined using the method described above. The representative strain of yeast selected for the study was Candida albicans CNCM 1180 (strain 5).
This is maintained on a gelose medium of Sabouraud Dextrose Agar, marketed by Difco. The technique is identical to that described for studying the antibacterial activity. After 48 hours of culture at 37° C., the microbial growth is harvested with the aid of glass beads and 5 ml of diluent containing 1 g of tryptone and 8.5 g of sodium chloride in 1000 ml of distilled water; a further 5 ml of the diluent are then added. In a spectrophotometer, this suspension gives a 2 to 3% transmission of light at 620 nm. The inoculum corresponds to a 1/10 dilution of this microbial suspension. A 1/100 dilution of this suspension, observed between a microscope slide and cover slip through a lens of magnification 40, should show 10 cells per field, which corresponds to 1 000 000 yeasts per ml.
as §6

[6] = system: bacterial strains and fungal strain tested; experiment: Bactericidal and fungicidal activities on the strains tested (overall statement); conditions: bacterial strains 1-4 and fungal strain 5
Method: The bactericidal and fungicidal activities of the products according to the invention were studied on different strains.
as §1, §5, §7
By way of comparison, 3-aryloxy-1-piperidinopropan-2-ol derivatives described in the literature, or similar to the compounds described, were prepared and the bactericidal and fungicidal activities of these compounds and of propranolol were measured on the same strains and under the same conditions as for the products according to the invention. The results are reported in Table II after those obtained with the products according to the invention.

[7] = Staphylococcus aureus CNCM 53154, contact time 30 minutes, solubilizing agent (water, TEG or acetone) given per product
[8] = Streptococcus faecalis CNCM 5855, contact time 30 minutes, solubilizing agent given per product
[9] = Pseudomonas aeruginosa CNCM A22, contact time 30 minutes, solubilizing agent given per product
[10] = Escherichia coli CNCM 54127, contact time 30 minutes, solubilizing agent given per product
[11] = Candida albicans CNCM 1180, contact time 30 minutes, solubilizing agent given per product

| Compound | MBC ([1]; Staphylococcus aureus) [µg/mL] | MBC [2] [µg/mL] | MBC ([3]; Pseudomonas aeruginosa) [µg/mL] | MBC ([4]; Escherichia coli) [µg/mL] | MFC ([5]; Candida albicans) [µg/mL] | antimicrobial activity (in words) [6] | MBC [1, 7] [µg/mL] | MBC [2, 8] [µg/mL] | MBC [3, 9] [µg/mL] | MBC [4, 10] [µg/mL] | MFC [5, 11] [µg/mL] |
| --- | --- | --- | --- | --- | --- | --- | --- | --- | --- | --- | --- |
| CC(C)NCC(O)COc1cccc2ccccc12 (stereo not drawn) [Propranolol, propranolol, reference compound] | 5000 (≈ 19.3 mM) | 1000 (≈ 3.86 mM) | 1000 (≈ 3.86 mM) | 1000 (≈ 3.86 mM) | 5000 (≈ 19.3 mM) | no antimicrobial activity | – | – | – | – | – |
| Cl.OC(CSc1ccc(Br)cc1)CN1CCCCC1 (stereo not drawn) [Product C, 3-(4-bromophenylthio)-1-piperidinopropan-2-ol hydrochloride, reference compound] | – | – | – | – | – | no antimicrobial activity | > 1000 | > 1000 | > 1000 | > 1000 | 1000 |
| Cl.OC(COc1ccccc1)CN1CCC(c2ccccc2)CC1 (stereo not drawn) [Product B, 3-phenoxy-1-(4-phenylpiperidino)propan-2-ol hydrochloride, reference compound] | – | – | – | – | – | no antimicrobial activity | > 1000 | > 1000 | > 1000 | > 1000 | > 1000 |
| CC1CCN(CC(O)COc2ccc(Br)cc2)CC1.Cl (stereo not drawn) [Product A, 3-(4-bromophenoxy)-1-(4-methylpiperidino)propan-2-ol hydrochloride, reference compound] | – | – | – | – | – | no antimicrobial activity | > 2000 | 1000 | 1000 | 1000 | 5000 |
